Experimental data published in ChEMBL document CHEMBL3885881, “DrugMatrix”.

How the values were obtained:
Rattus norvegicus [1] = species: Rattus norvegicus; type: toxicity, organism-based, Sprague-Dawley; details: in vivo, po, 1200 mg/kg, 24 h, route oral GAVAGE, dose level High, time 1 day, vehicle .5 % CMC
Description: DrugMatrix - Regimen: Single

Rattus norvegicus [2] = species: Rattus norvegicus; assay: DrugMatrix - Regimen: Daily Repeat; type: toxicity, organism-based, Sprague-Dawley; design: regimen Daily Repeat, gender Male, age 6-8 weeks; details: in vivo, po, 1200 mg/kg, 72 h, route oral GAVAGE, dose level High, time 3 day, vehicle .5 % CMC

SMILES: Nc1ccc(Cl)cc1[N+](=O)[O-] [4-CHLORO-2-NITROANILINE]
- ABSOLUTE EOSINOPHIL (Rattus norvegicus [1]; tissue Blood): 51.67 CELLS/uL
- ABSOLUTE LYMPHOCYTE (Rattus norvegicus [1]; tissue Blood): 11963.33 CELLS/uL
- ABSOLUTE MONOCYTE (Rattus norvegicus [1]; tissue Blood): 476.67 CELLS/uL
- ABSOLUTE SEGMENTED NEUTROPHIL (Rattus norvegicus [1]; tissue Blood): 1508.33 CELLS/uL
- BASOPHIL (Rattus norvegicus [1]; tissue Blood): 0%
- EOSINOPHIL (Rattus norvegicus [1]; tissue Blood): 0.33%
- ERYTHROCYTE COUNT (Rattus norvegicus [1]; tissue Blood): 5.85 x10E6/uL
- HEMATOCRIT (Rattus norvegicus [1]; tissue Blood): 35.7%
- HEMOGLOBIN (Rattus norvegicus [1]; tissue Blood): 12.97 G/DL
- LEUKOCYTE COUNT (Rattus norvegicus [1]; tissue Blood): 14 x10E3/uL
- LYMPHOCYTE (Rattus norvegicus [1]; tissue Blood): 85.67%
- MEAN CORPUSCULAR HEMOGLOBIN (Rattus norvegicus [1]; tissue Blood): 22.17 pg
- MEAN CORPUSCULAR HEMOGLOBIN CONCENTRATION (Rattus norvegicus [1]; tissue Blood): 36.3 G/DL
- MEAN CORPUSCULAR VOLUME (Rattus norvegicus [1]; tissue Blood): 61.07 fL
- MONOCYTE (Rattus norvegicus [1]; tissue Blood): 3.33%
- NEUTROPHIL (Rattus norvegicus [1]; tissue Blood): 10.67%
- NUCLEATED RED BLOOD CELLS (Rattus norvegicus [1]; tissue Blood): 0 /100WBC
- PLATELET COUNT (Rattus norvegicus [1]; tissue Blood): 1137 x10E3/uL
- ALANINE AMINOTRANSFERASE (Rattus norvegicus [1]; tissue Plasma): 71.67 u/L
- ALBUMIN (Rattus norvegicus [1]; tissue Plasma): 4.2 G/DL
- ALKALINE PHOSPHATASE (Rattus norvegicus [1]; tissue Plasma): 484 u/L
- ASPARTATE AMINOTRANSFERASE (Rattus norvegicus [1]; tissue Plasma): 114 u/L
- BLOOD UREA NITROGEN (Rattus norvegicus [1]; tissue Plasma): 15 mg/dL
- CARBON DIOXIDE (Rattus norvegicus [1]; tissue Plasma): 23.33 mmol/L
- CHLORIDE (Rattus norvegicus [1]; tissue Plasma): 101.33 MEQ/L
- CHOLESTEROL (Rattus norvegicus [1]; tissue Plasma): 86.33 mg/dL
- CREATININE (Rattus norvegicus [1]; tissue Plasma): 0.27 mg/dL
- GLUCOSE (Rattus norvegicus [1]; tissue Plasma): 219 mg/dL
- LACTATE DEHYDROGENASE (Rattus norvegicus [1]; tissue Plasma): 411.33 u/L
- LIPASE (Rattus norvegicus [1]; tissue Plasma): 10 u/L
- PHOSPHORUS (Rattus norvegicus [1]; tissue Plasma): 14.33 mg/dL
- POTASSIUM (Rattus norvegicus [1]; tissue Plasma): 6.09 MEQ/L
- SODIUM (Rattus norvegicus [1]; tissue Plasma): 142.83 MEQ/L
- TOTAL BILIRUBIN (Rattus norvegicus [1]; tissue Plasma): 0.2 mg/dL
- TOTAL PROTEIN (Rattus norvegicus [1]; tissue Plasma): 6.2 G/DL
- URIC ACID (Rattus norvegicus [1]; tissue Plasma): 2.73 mg/dL
- ABSOLUTE BASOPHIL (Rattus norvegicus [2]; tissue Blood): 0 CELLS/uL
- ABSOLUTE EOSINOPHIL (Rattus norvegicus [2]; tissue Blood): 170.33 CELLS/uL
- ABSOLUTE LYMPHOCYTE (Rattus norvegicus [2]; tissue Blood): 8812.67 CELLS/uL
- ABSOLUTE MONOCYTE (Rattus norvegicus [2]; tissue Blood): 210.67 CELLS/uL
- ABSOLUTE SEGMENTED NEUTROPHIL (Rattus norvegicus [2]; tissue Blood): 673 CELLS/uL
- BASOPHIL (Rattus norvegicus [2]; tissue Blood): 0%
- EOSINOPHIL (Rattus norvegicus [2]; tissue Blood): 1.67%
- ERYTHROCYTE COUNT (Rattus norvegicus [2]; tissue Blood): 6.64 x10E6/uL
- HEMATOCRIT (Rattus norvegicus [2]; tissue Blood): 39.73%
- HEMOGLOBIN (Rattus norvegicus [2]; tissue Blood): 14.83 G/DL
- LEUKOCYTE COUNT (Rattus norvegicus [2]; tissue Blood): 9.87 x10E3/uL
- LYMPHOCYTE (Rattus norvegicus [2]; tissue Blood): 89%
- MEAN CORPUSCULAR HEMOGLOBIN (Rattus norvegicus [2]; tissue Blood): 22.33 pg
- MEAN CORPUSCULAR HEMOGLOBIN CONCENTRATION (Rattus norvegicus [2]; tissue Blood): 37.37 G/DL
- MEAN CORPUSCULAR VOLUME (Rattus norvegicus [2]; tissue Blood): 59.8 fL
- MONOCYTE (Rattus norvegicus [2]; tissue Blood): 2.33%
- NEUTROPHIL (Rattus norvegicus [2]; tissue Blood): 7%
- NUCLEATED RED BLOOD CELLS (Rattus norvegicus [2]; tissue Blood): 0.33 /100WBC
- PLATELET COUNT (Rattus norvegicus [2]; tissue Blood): 873.33 x10E3/uL
- ALANINE AMINOTRANSFERASE (Rattus norvegicus [2]; tissue Plasma): 82.67 u/L
- ALBUMIN (Rattus norvegicus [2]; tissue Plasma): 4.53 G/DL
- ALKALINE PHOSPHATASE (Rattus norvegicus [2]; tissue Plasma): 464.33 u/L
- ASPARTATE AMINOTRANSFERASE (Rattus norvegicus [2]; tissue Plasma): 89.67 u/L
- BLOOD UREA NITROGEN (Rattus norvegicus [2]; tissue Plasma): 17 mg/dL
- CARBON DIOXIDE (Rattus norvegicus [2]; tissue Plasma): 36.67 mmol/L
- CHLORIDE (Rattus norvegicus [2]; tissue Plasma): 100 MEQ/L
- CHOLESTEROL (Rattus norvegicus [2]; tissue Plasma): 91.67 mg/dL
- CREATININE (Rattus norvegicus [2]; tissue Plasma): 0.24 mg/dL
- GLUCOSE (Rattus norvegicus [2]; tissue Plasma): 126.33 mg/dL
- LACTATE DEHYDROGENASE (Rattus norvegicus [2]; tissue Plasma): 78.67 u/L
- LIPASE (Rattus norvegicus [2]; tissue Plasma): 10 u/L
- PHOSPHORUS (Rattus norvegicus [2]; tissue Plasma): 11.83 mg/dL
- POTASSIUM (Rattus norvegicus [2]; tissue Plasma): 6.36 MEQ/L
- SODIUM (Rattus norvegicus [2]; tissue Plasma): 147.57 MEQ/L
- TOTAL BILIRUBIN (Rattus norvegicus [2]; tissue Plasma): 0.23 mg/dL
- TOTAL PROTEIN (Rattus norvegicus [2]; tissue Plasma): 6.73 G/DL
- URIC ACID (Rattus norvegicus [2]; tissue Plasma): 1.37 mg/dL
